Measurements from patent US20230174530A1, “N-(PHENYLAMINOCARBONYL) TETRAHYDRO-ISOQUINOLINES AND RELATED COMPOUNDS AS MODULATORS OF GPR65” (PATHIOS THERAPEUTICS LIMITED, priority 2020, published 2023).

Molecular target: T1, human recombinant GPR65 (Homo sapiens, UniProt Q8IYL9)
T1 construct: host or cells: 1321N1 human astrocytoma cells (1321N1-hrGPR65)
Test: Human GPR65 cAMP HTRF antagonist assay
Format: cell-based
Conditions: 1321N1-hrGPR65 cells stimulated at assay pH 7.2; suppression of cAMP rise; read-out: hGPR65 IC50
Method in brief: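 1321N1 astrocytoma cells stably expressing human GPR65, 2,000 per well in KRH with 1 mM IBMX and 200 μM EDTA, preincubated 30 min with compound at RT. Acid stimulation at pH 7.2 for 30 min, pH 7.9 as control. cAMP read by HTRF 665/620 ratio; IC50 from normalised 4-parameter fit.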

T1 sequence (Q8IYL9 whole entry): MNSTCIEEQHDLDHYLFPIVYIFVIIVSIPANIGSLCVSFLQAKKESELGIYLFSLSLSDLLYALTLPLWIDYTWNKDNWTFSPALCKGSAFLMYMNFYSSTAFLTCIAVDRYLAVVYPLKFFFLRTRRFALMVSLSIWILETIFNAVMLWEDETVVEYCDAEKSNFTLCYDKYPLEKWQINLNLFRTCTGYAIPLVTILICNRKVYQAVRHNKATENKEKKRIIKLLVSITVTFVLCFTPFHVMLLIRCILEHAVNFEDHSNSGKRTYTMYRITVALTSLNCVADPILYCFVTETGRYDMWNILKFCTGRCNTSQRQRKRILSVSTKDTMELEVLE

| IC50 [nM] | SMILES |
| --- | --- |
| 500 to 5000 | O=C(Nc1ccc(Cl)c(Cl)c1)N1CCc2cnc(F)cc2C1 [Compound 86, N-(3,4-Dichlorophenyl)-7-fluoro-3,4-dihydro-2,6-naphthyridine-2(1H)-carboxamide] |
| > 5000 | O=C(Nc1ccc(Cl)c(Cl)c1)N1CCc2cc3ncnn3cc2C1 [Compound 111, N-(3,4-Dichlorophenyl)-8,9-dihydro-[1,2,4]triazolo[1,5-b][2,7]naphthyridine-7(6H)-carboxamide] |
| > 5000 | O=C(Nc1ccc(Cl)c(Cl)c1)N1CCc2cn3ccnc3cc2C1 [Compound 115, N-(3,4-Dichlorophenyl)-6,7-dihydroimidazo[1,2-b][2,6]naphthyridine-8(9H)-carboxamide] |
| > 5000 | COc1ccc2c(c1)CCN(C(=O)Nc1ccc(Cl)c(Cl)c1)C2 [Compound 65, N-(3,4-Dichlorophenyl)-6-methoxy-3,4-dihydroisoquinoline-2(1H)-carboxamide] |
| < 500 | O=C(Nc1ccc(Cl)c(Cl)c1)N1CCc2cn3cncc3cc2C1 [Compound 117, N-(3,4-Dichlorophenyl)-6,7-dihydroimidazo[1,5-b][2,6]naphthyridine-8(9H)-carboxamide] |
| 500 to 5000 | O=C(Nc1ccc(Cl)c(Cl)c1)N1CCc2oncc2C1 [Compound 80, N-(3,4-Dichlorophenyl)-6,7-dihydroisoxazolo[4,5-c]pyridine-5(4H)-carboxamide] |
| 500 to 5000 | O=C(Nc1ccc(Cl)c(Cl)c1)N1CCc2ccc(O)cc2C1 [Compound 96, N-(3,4-Dichlorophenyl)-7-hydroxy-3,4-dihydroisoquinoline-2(1H)-carboxamide] |
| 500 to 5000 | N#Cc1cc2c(cn1)CN(C(=O)Nc1ccc(Cl)c(Cl)c1)CC2 [Compound 102, 6-Cyano-N-(3,4-dichlorophenyl)-3,4-dihydro-2,7-naphthyridine-2(1H)-carboxamide] |
| < 500 | O=C(Nc1ccc(Cl)c(Cl)c1)N1CCc2cc(=O)[nH]cc2C1 [Compound 76, N-(3,4-Dichlorophenyl)-6-oxo-3,4,6,7-tetrahydro-2,7-naphthyridine-2(1H)-carboxamide] |
| > 5000 | O=C(Nc1ccc(Cl)c(Cl)c1)N1CCc2cn3ncnc3cc2C1 [Compound 121, N-(3,4-Dichlorophenyl)-6,7-dihydro-[1,2,4]triazolo[1,5-b][2,6]naphthyridine-8(9H)-carboxamide] |
| > 5000 | O=C(Nc1ccc(Cl)c(Cl)c1)N1CCc2ncccc2C1 [Compound 20, N-(3,4-Dichlorophenyl)-7,8-dihydro-1,6-naphthyridine-6(5H)-carboxamide] |
| > 5000 | O=C(Nc1ccc(Cl)c(Cl)c1)N1CCc2cncnc2C1 [Compound 8, N-(3,4-Dichlorophenyl)-5,8-dihydropyrido[3,4-d]pyrimidine-7(6H)-carboxamide] |
| < 500 | O=C(Nc1ccc(Cl)c(Cl)c1)N1CCc2cc3cncn3cc2C1 [Compound 113, N-(3,4-Dichlorophenyl)-8,9-dihydroimidazo[1,5-b][2,7]naphthyridine-7(6H)-carboxamide] |

More lines, now with the values behind:

| SMILES | IC50 [nM] |
| --- | --- |
| O=C(Nc1ccc(C(F)(F)F)c(Cl)c1)N1CCc2cc(F)ncc2C1 [Compound 104, N-(3-chloro-4-(trifluoromethyl)phenyl)-6-fluoro-3,4-dihydro-2,7-naphthyridine-2(1H)-carboxamide] | < 500 |
| COc1cccc2c1CCN(C(=O)Nc1ccc(C(F)(F)F)c(Cl)c1)C2 [Compound 134, N-(3-Chloro-4-(trifluoromethyl)phenyl)-5-methoxy-3,4-dihydroisoquinoline-2(1H)-carboxamide] | 500 to 5000 |
| O=C(Nc1ccc(C(F)(F)F)c(Cl)c1)N1CCc2ccc(Cl)cc2C1 [Compound 30, 7-Chloro-N-(3-chloro-4-(trifluoromethyl)phenyl)-3,4-dihydroisoquinoline-2(1H)-carboxamide] | < 500 |
| O=C(Nc1ccc(C(F)(F)F)c(Cl)c1)N1CCc2ncncc2C1 [Compound 6, N-(3-Chloro-4-(trifluoromethyl)phenyl)-7,8-dihydropyrido[4,3-d]pyrimidine-6(5H)-carboxamide] | 500 to 5000 |
| O=C(Nc1ccc(Cl)c(Cl)c1)N1CCc2cc(-c3cccnc3F)ccc2C1 [Compound 126, N-(3,4-Dichlorophenyl)-6-(2-fluoropyridin-3-yl)-3,4-dihydroisoquinoline-2(1H)-carboxamide] | 500 to 5000 |
| O=C(Nc1ccc(C(F)(F)F)c(Cl)c1)N1CCc2c(Cl)cccc2C1 [Compound 57, 5-Chloro-N-(3-chloro-4-(trifluoromethyl)phenyl)-3,4-dihydroisoquinoline-2(1H)-carboxamide] | 500 to 5000 |
| O=C(Nc1ccc(C(F)(F)F)c(Cl)c1)N1CCc2cccc(F)c2C1 [Compound 47, N-(3-Chloro-4-(trifluoromethyl)phenyl)-8-fluoro-3,4-dihydroisoquinoline-2(1H)-carboxamide] | 500 to 5000 |
| O=C(Nc1ccc(C(F)(F)F)c(Cl)c1)N1CCc2ccc(F)cc2C1 [Compound 33, N-(3-Chloro-4-(trifluoromethyl)phenyl)-7-fluoro-3,4-dihydroisoquinoline-2(1H)-carboxamide] | < 500 |
| Nc1ccc2c(n1)CCN(C(=O)Nc1ccc(Cl)c(Cl)c1)C2 [Compound 122, 2-Amino-N-(3,4-dichlorophenyl)-7,8-dihydro-1,6-naphthyridine-6(5H)-carboxamide] | > 5000 |
| O=C(Nc1ccc(Cl)c(Cl)c1)N1CCc2cccnc2C1 [Compound 18, N-(3,4-Dichlorophenyl)-5,8-dihydro-1,7-naphthyridine-7(6H)-carboxamide] | > 5000 |
| COc1cccc2c1CN(C(=O)Nc1ccc(Cl)c(Cl)c1)CC2 [Compound 64, N-(3,4-Dichlorophenyl)-8-methoxy-3,4-dihydroisoquinoline-2(1H)-carboxamide] | 500 to 5000 |
| COC(=O)c1ccc2c(c1)CCN(C(=O)Nc1ccc(Cl)c(Cl)c1)C2 [Compound 114, Methyl 2-((3,4-dichlorophenyl)carbamoyl)-1,2,3,4-tetrahydroisoquinoline-6-carboxylate] | < 500 |
| Cc1cccc2c1CCN(C(=O)Nc1ccc(Cl)c(C(F)(F)F)c1)C2 [Compound 59, N-(4-Chloro-3-(trifluoromethyl)phenyl)-5-methyl-3,4-dihydroisoquinoline-2(1H)-carboxamide] | 500 to 5000 |
| O=C(Nc1ccc(Cl)c(Cl)c1)N1CCc2[nH]c(=O)ccc2C1 [Compound 78, N-(3,4-Dichlorophenyl)-2-oxo-1,5,7,8-tetrahydro-1,6-naphthyridine-6(2H)-carboxamide] | > 5000 |
| Cc1noc(-c2ccc3c(c2)CCN(C(=O)Nc2ccc(Cl)c(Cl)c2)C3)n1 [Compound 140, N-(3,4-Dichlorophenyl)-6-(3-methyl-1,2,4-oxadiazol-5-yl)-3,4-dihydroisoquinoline-2(1H)-carboxamide] | < 500 |
| O=C(Nc1ccc(C(F)(F)F)c(Cl)c1)N1CCc2cc(F)c(F)cc2C1 [Compound 108, N-(3-Chloro-4-(trifluoromethyl)phenyl)-6,7-difluoro-3,4-dihydroisoquinoline-2(1H)-carboxamide] | < 500 |
| Cc1ccc2c(c1)CN(C(=O)Nc1ccc(C(F)(F)F)c(Cl)c1)CC2 [Compound 35, N-(3-Chloro-4-(trifluoromethyl)phenyl)-7-methyl-3,4-dihydroisoquinoline-2(1H)-carboxamide] | 500 to 5000 |
